In patent US20240092756A1, “METHODS AND COMPOSITION FOR KRAS MODIFICATIONS” (2692372 ONTARIO, INC., priority 2020, published 2024):

Columns and labels:
[1] = target: KRAS G12C Lite (SEQ ID NO:3) (Homo sapiens, UniProt P01116, C118S/C51S/C80S/G12C/S136P/S39C); test: Intact mass analysis (LC-MS) of covalent modification, KRAS G12C Lite; type: binding; parameters: key to KRAS Lite Modification: a: KRAS Lite modified; conditions: for KRAS Lite Modification: intact mass spectrometry, covalent modification of KRAS G12C Lite; for covalent adduct mass, His-tagged KRAS G12C Lite: modification by one molecule of compound
Protocol: (§1) The covalent modification of the proteins with the compounds were evaluated using intact mass analysis by liquid chromatography-mass spectrometry instrument (LC-MS/MS).
(§2) The reaction solution (20 μL) was prepared in 96-well plate and contained the protein (2 μM), the compound (100 μM), HEPES buffer (20 mM, pH 8), 2% DMSO, 2% glycerol, and 150 mM NaCl. The reaction was allowed to proceed for 24 h at 25° C. The reaction solution (1 μL) was injected into the LC/MS/MS without any further sample preparation.
(§3) The LC-MS/MS instrument comprises of a Waters G2-XS quadrupole-time of flight (QTof) mass spectrometer and a Waters Acuity I-class Ultra-High Performance Liquid Chromatography (UPLC) system. The I-class UPLC system includes a binary solvent manager (BSM), and an Acquity sample manager (SM). The mobile phase consisted of: A) 0.1% (v/v) formic acid in MilliQ water; B) 0.1% (v/v) formic acid acetonitrile. Gradients were run over 5 min and proceeded as follows: A:B, 85:15, 0.0-0.7 min, 85:15→15:85, 0.7-1.5 min, 10:90, 1.5-4 min, 10:90→85:15, 4-4.5 min, 85:15, 4.5-5 min. The analytical column was a Waters BEH C4 column 1.7 μm (50×1 mm) column with pore sizes of 300 Å. The TOF MS data was collected in positive ion mode (m/z of 400-2000 Da) using MassLynx software (Waters).
(§4) The spectral deconvolution was performed using UNIFI software (Waters). The added mass of the protein upon covalent modification to cysteine residues were specified. Multiple modification of up to 8 cysteine was allowed. All the adducts with signal intensities of <2% of the base peak were ignored. The % modification was calculated as the adduct signal intensity over the total intensities of the protein peaks and the adducts.

[2] = target: T1, KRAS G12C (SEQ ID NO:1 or SEQ ID NO:2) (Homo sapiens, UniProt P01116, G12C); test: Intact mass analysis (LC-MS) of covalent modification, KRAS G12C; type: binding; parameters: key to KRAS G12C Modification: b: KRAS G12C modified; conditions: for KRAS G12C Modification: intact mass spectrometry, covalent modification of KRAS G12C FL; for covalent adduct mass, His-tagged KRAS G12C: modification by one molecule of compound
T1 construct: purchased
Protocol: as §1, §2, §3, §4

[3] = target: KRAS G12C Lite (Homo sapiens, UniProt P01116, C118S/C51S/C80S/G12C/S136P/S39C); test: Differential scanning fluorimetry, KRAS G12C Lite; type: binding; parameters: key: Y: protein destabilized; N: protein not destabilized; conditions: 37° C. 5 hours incubation
Protocol: (§5) KRas proteins at 0.05 mg/ml in buffer Hepes, 147 mM NaCl, 2% glycerol, 5 mM MgCl2, 1 mM EDTA, 10 μM GDP, pH 8.0 were incubated in the presence desired concentration of compounds (5% DMSO final concentration) at 37° C. for 5 hours. After incubation, Sypro Oange to a final concentration of 5× was added to each sample. 20 μl aliquots of samples were transferred PCR tubes, sealed with caps, and run in a BioRad CFX96 RTPCR thermocycler. In the instrument, the samples were heated at a rate of 1° C./min from 25 to 90 degrees. Fluorescence readings were taken every 1 degree. The data generated was exported and analyzed using GraphPad-Prism software. The denaturation curves were fit using a Boltzmann sigmoidal equation to calculate melting temperatures (Tm).

[4] = target: T2, KRAS G12C (Homo sapiens, UniProt P01116, G12C); test: SOS1-catalyzed KRAS coupled nucleotide exchange assay (Alpha technology); type: biochemical; parameters: His; key: A: KRAS G12C bound and modulated; conditions: inhibition of SOS1 mediated KRAS nucleotide exchange
Outline: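 Alpha readout of c-RAF RBD binding to GTP-bound KRAS, normalized to DMSO. Method I: 20 nM GDP-KRAS G12C/C118A with compound 5 min, then 1.25 mM GTP + 500 nM SOS-1 30 min, pH 7.4 HEPES/MgCl2 buffer, 50 nM RBD. Method II: 50 nM GDP-KRAS G12C with compound 2 h, 1 mM GTP + 500 nM SOS-1 30 min, 2.5 nM GST-RBD; RT throughout.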

[5] = system: phospho-ERK1/2 in MIA PaCa-2 cells (express KRAS G12C); test: ERK1/2 phosphorylation in MIA PaCa-2 cells; type: cell-based, human; parameters: key: X: KRAS G12C bound and modulated in cells
[6] = target: T2, KRAS G12C; test: Differential scanning fluorimetry, KRAS G12C; type: binding; parameters: purchased; key: Y: protein destabilized; N: protein not destabilized; conditions: 37° C. 5 hours incubation
Protocol: as §5

KRAS Lite Modification [1] | KRAS G12C Modification [2] | KRAS G12C Lite DSF ΔTm [3] | KRAS-SOS1 Nucleotide Exchange [4] | covalent adduct mass, His-tagged KRAS G12C Lite [1] | covalent adduct mass, His-tagged KRAS G12C [2] | KRAS G12C DSF ΔTm [6] | SMILES | pERK - MIA PaCa-2 - (6 hours, 5 uM) [5]
a | b |  | A |  |  |  | Cc1ccnc(C(C)C)c1-n1c(=O)nc(NS(=O)(=O)c2c(F)c(F)c(F)c(F)c2F)c2cc(F)c(-c3c(O)cccc3F)nc21 [Compound 3A, 2,3,4,5,6-pentafluoro-N-(6-fluoro-7-(2-fluoro-6-hydroxyphenyl)-1-(2-isopropyl-4-methylpyridin-3-yl)-2-oxo-1,2-dihydropyrido[2,3-d]pyrimidin-4-yl)benzenesulfonamide] | X
a | b |  | A | 22,229 Da | 22,120 Da |  | Cc1ccnc(C(C)C)c1-n1c(=O)nc(N2CCN(S(=O)(=O)c3c(F)c(F)c(F)c(F)c3C(F)(F)F)C[C@@H]2C)c2cc(F)c(-c3c(O)cccc3F)nc21 [Compound 6A, 6-fluoro-7-(2-fluoro-6-hydroxyphenyl)-1-(2-isopropyl-4-methylpyridin-3-yl)-4-((S)-2-methyl-4-((2,3,4,5-tetrafluoro-6-(trifluoromethyl)phenyl)sulfonyl)piperazin-1-yl)pyrido[2,3-d]pyrimidin-2(1H)-one] | X
a | b | Y | A |  |  | Y | Cc1ccnc(C(C)C)c1-n1c(=O)nc(N2CCN(S(=O)(=O)c3c(F)c(F)c(F)c(F)c3OC(F)F)C[C@@H]2C)c2cc(F)c(Cl)nc21 [Compound 12A, (S)-7-chloro-4-(4-((2-(difluoromethoxy)-3,4,5,6-tetrafluorophenyl)sulfonyl)-2-methylpiperazin-1-yl)-6-fluoro-1-(2-isopropyl-4-methylpyridin-3-yl)pyrido[2,3-d]pyrimidin-2(1H)-one] | 
a | b | Y | A |  |  | Y | Cc1ccnc(C(C)C)c1-n1c(=O)nc(N2CC(NS(=O)(=O)c3c(F)c(F)c(F)c(F)c3C(F)(F)F)C2)c2cc(F)c(Cl)nc21 [Compound 13A, N-(1-(7-chloro-6-fluoro-1-(2-isopropyl-4-methylpyridin-3-yl)-2-oxo-1,2-dihydropyrido[2,3-d]pyrimidin-4-yl)azetidin-3-yl)-2,3,4,5-tetrafluoro-6-(trifluoromethyl)benzenesulfonamide] | 

More lines, now with the values behind:

SMILES | KRAS Lite Modification [1] | KRAS G12C Modification [2] | KRAS G12C Lite DSF ΔTm [3] | KRAS-SOS1 Nucleotide Exchange [4] | covalent adduct mass, His-tagged KRAS G12C Lite [1] | covalent adduct mass, His-tagged KRAS G12C [2] | KRAS G12C DSF ΔTm [6] | pERK - MIA PaCa-2 - (6 hours, 5 uM) [5]
CN1CCC[C@H]1COc1nc2c(c(N3CCN(S(=O)(=O)c4c(F)c(F)c(F)c(F)c4C(F)(F)F)CC3)n1)CCN(c1cccc3cccc(Cl)c13)C2 (stereo in doubt) [Compound 42A, (7R)-7-(8-chloro-1-naphthyl)-2-[[(1S,2S)-1-methylpyrrolidin-2-yl]methoxy]-4-[4-[2,3,4,5-tetrafluoro-6-(trifluoromethyl)phenyl]sulfonylpiperazin-1-yl]-6,8-dihydro-5H-pyrido[3,4-d]pyrimidine] | a | b | Y | A |  |  |  | 
Cc1ccnc(C(C)C)c1-n1c(=O)nc(N2CCN(S(=O)(=O)c3c(F)c(F)c(F)c(F)c3F)C[C@@H]2C)c2cc(F)c(-c3c(O)cccc3F)nc21 [Compound 1A, 6-fluoro-7-(2-fluoro-6-hydroxyphenyl)-1-(2-isopropyl-4-methylpyridin-3-yl)-4-((S)-2-methyl-4-((perfluorophenyl)sulfonyl)piperazin-1-yl)pyrido[2,3-d]pyrimidin-2(1H)-one] | a | b |  | A | 22,179 Da | 22,070 Da |  | X
Cc1ccnc(C(C)C)c1-n1c(=O)nc(N2CCN(S(=O)(=O)c3c(F)c(F)c(F)c(F)c3OCF)C[C@@H]2C)c2cc(F)c(-c3c(O)cccc3F)nc21 [Compound 7A, 6-fluoro-7-(2-fluoro-6-hydroxyphenyl)-1-(2-isopropyl-4-methylpyridin-3-yl)-4-((S)-2-methyl-4-((2,3,4,5-tetrafluoro-6-(fluoromethoxy)phenyl)sulfonyl)piperazin-1-yl)pyrido[2,3-d]pyrimidin-2(1H)-one] | a | b |  | A | 22,209 Da | 22,100 Da |  | X
Cc1ccnc(C(C)C)c1-n1c(=O)nc(N2CCN(S(=O)(=O)c3c(F)c(F)c(F)c(F)c3C(F)(F)F)C[C@@H]2C)c2cc(F)c(Cl)nc21 [Compound 11A, 7-chloro-6-fluoro-1-(2-isopropyl-4-methylpyridin-3-yl)-4-((S)-2-methyl-4-((2,3,4,5-tetrafluoro-6-(trifluoromethyl)phenyl)sulfonyl)piperazin-1-yl)pyrido[2,3-d]pyrimidin-2(1H)-one] | a | b | Y |  |  |  | Y | 
